The values below come from article PMC3179492, “HIV Protease Inhibitors Act as Competitive Inhibitors of the Cytoplasmic Glucose Binding Site of GLUTs with Differing Affinities for GLUT1 and GLUT4” (PLoS ONE, 2011).

Each structure is given as a SMILES string. Where two headings read alike, the source gives them in different places.

In assay [1] the target is T1, GLUT4 (Mus musculus, UniProt P14142).
T1 sequence (P14142 1-509): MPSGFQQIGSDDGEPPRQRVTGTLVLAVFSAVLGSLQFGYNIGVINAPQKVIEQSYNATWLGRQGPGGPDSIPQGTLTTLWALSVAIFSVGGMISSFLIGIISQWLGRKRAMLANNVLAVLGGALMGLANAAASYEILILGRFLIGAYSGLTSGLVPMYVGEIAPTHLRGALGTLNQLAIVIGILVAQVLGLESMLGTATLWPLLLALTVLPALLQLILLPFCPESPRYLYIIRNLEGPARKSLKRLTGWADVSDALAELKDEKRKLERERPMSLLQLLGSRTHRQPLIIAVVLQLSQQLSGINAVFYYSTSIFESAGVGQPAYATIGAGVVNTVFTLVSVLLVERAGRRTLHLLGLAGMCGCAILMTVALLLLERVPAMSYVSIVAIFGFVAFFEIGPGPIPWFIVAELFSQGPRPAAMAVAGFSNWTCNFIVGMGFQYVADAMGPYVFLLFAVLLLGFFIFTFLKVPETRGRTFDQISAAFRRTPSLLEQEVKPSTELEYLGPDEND
Particulars: Xenopus oocytes; read-out: Binding affinity (KI) for GLUT4 in the oocyte system; cited from earlier work.

The next assay deals with primary rat adipocytes. The conditions noted are these: read-out: KI from inhibition of zero trans glucose uptake; cited from earlier work.
The target of assay [2] is T1, GLUT4. Briefly: ATB-BMPA photolabeling of low-density microsomes (LDM) from 3T3-L1 adipocytes, GLUT4. It is filed as binding. The conditions noted are these: LDM 200 µg, biotinylated ATB-BMPA 50 µM, mean ± S.E., n = 3; read-out: Half-maximal inhibition (IC50) of ATB-BMPA binding to GLUT4. Also on record: LDM contains small intracellular vesicles of GLUT4 and GLUT1; endogenous in cells; host or cells: low-density microsome fraction of differentiated 3T3-L1 adipocytes. How it is done:
3T3-L1 fibroblasts were grown to confluency and 48 h later subjected to differentiation as previously described. 3T3-L1 adipocytes were used 10 – 14 days after differentiation. Six culture dishes (15 cm) of adipocytes were serum-starved overnight, washed 3 times with ice-cold HES buffer (50 mM Hepes, pH 7.4, 255 mM sucrose, and 1 mM EDTA) containing Roche complete protease inhibitors (Roche Applied Science, Mannheim, Germany), scraped into 5 ml of the same buffer, and then homogenized with either a ball-bearing homogenizer or with a Potter-Elvehjem tissue grinder and a PTFE pestle. The low-density microsome (LDM) fraction was obtained by differential centrifugation as described previously. LDM were resuspended in phosphate buffer (25 mM phosphate, pH 7.4, 100 mM NaCl, 5% glycerol) containing complete Roche protease inhibitors.
Inhibitors were added to LDM (200 µg protein unless otherwise stated) for 10 min at room temperature. Samples (final volume 110 µl) were then incubated for 10 min at room temperature in the dark with biotinylated ATB-BMPA (50 µM final concentration) and then placed on ice prior to UV irradiation. Reactions were transferred to a 24-well low protein retention culture dish (Costar, Corning, NY) and then irradiated at room temperature 5 cm from a Green Spot UV lamp for 1 min (30 sec of light, followed by 30 sec of darkness, followed by 30 sec of light).
20 µl of BSA (1.5 mg/ml final concentration) was added to the UV irradiated samples in a siliconized eppendorph tube. Excess biotinylated ATB-BMPA label was removed using a 0.5 ml Zeba Spin Desalting Column (Pierce). Biotinylated proteins were isolated essentially as described previously. Membranes were solubilized for 30 min at 4°C with 2% Thesit detergent buffer containing protease inhibitors. After centrifugation at 16,000 x g for 10 min, the supernatants were incubated overnight at 4°C with 50 µl of high capacity Streptavidin Agarose resin (Pierce). Precipitates were washed 3 times with 1% Thesit detergent buffer, twice with 0.1% Thesit detergent buffer, and once with phosphate buffer. Biotinylated proteins were eluted at 95 – 100°C for 20 min in 60 µl of 2X Laemmli Sample Buffer containing 40 mM dithiothreitol. Half of the eluted proteins were subjected to SDS-PAGE and transferred to nitrocellulose. Immunoblot analysis was carried out using GLUT4 and GLUT1 specific antibodies and quantified using an Odyssey Infrared Imaging System (LI-COR Biosciences, Lincoln, NE).

For a further assay, the system named is 3T3-L1 fibroblasts. Briefly: 2-Deoxyglucose uptake in 3T3-L1 fibroblasts (express only GLUT1). In kind it is cell-based. The conditions noted are these: for Effect on 2-deoxyglucose uptake (GLUT1 transporter activity): 3T3-L1 fibroblasts. How it is done:
3T3-L1 fibroblasts were grown to confluency in Dulbecco's modified Eagle's medium (DMEM) supplemented with 10% calf serum. The uptake of [^3H]2-Deoxyglucose (50 µM) was measured in Krebs-Ringer phosphate buffer for 6 min at 37°C as previously described. HIV protease inhibitors were added 6 min prior to the start of the reaction. Non-specific uptake measured in the presence of 20 µM cytochalasin B (Sigma) was subtracted from the experimental values.

For assay [3], the target named is T1, GLUT4. Briefly: Kinetic (Scatchard) analysis of indinavir effect on ATB-BMPA labeling of GLUT4 in LDM. In kind it is binding. Also on record: LDM contains small intracellular vesicles of GLUT4 and GLUT1; endogenous in cells; host or cells: low-density microsome fraction of differentiated 3T3-L1 adipocytes. The conditions noted are these: from Kd(apparent) = Kd (1 + [I]/KI), LDM 50 µg; read-out: KI, competitive inhibition of ATB-BMPA binding to the cytoplasmic glucose binding site of GLUT4. How it is done:
ATB-BMPA (50, 100, 200, 300 µM final concentration) was then added for an additional 10 min (5 min at room temperature, 5 min at 4 °C). Samples (110 µl final volume) were UV irradiated as described above. After removal of excess label with a desalting spin column, GLUT4 protein was immunoprecipitated from Thesit-solubilized LDM using a GLUT4 C-terminal directed antibody. ATB-BMPA-bound GLUT4 was analyzed by immunoblot analysis using an IR Dye 800 CW fluorescent streptavidin (LI-COR) and quantified with an Odyssey Infrared Imaging System. Identical samples that were not UV irradiated were used to correct for non-specific binding. The free ATB-BMPA concentration was assumed to be equal to the total ATB-BMPA concentration since the label concentration far exceeded the GLUT4 concentration. The data was expressed as Scatchard plots, bound/free versus bound. The Bmax and Kd values were determined from the horizontal intercept and the negative […], respectively.

Regarding `CC(C)(C)NC(=O)[C@@H]1CN(Cc2cccnc2)CCN1C[C@@H](O)C[C@@H](Cc1ccccc1)C(=O)N[C@H]1c2ccccc2C[C@H]1O` [Indinavir, indinavir], the Ki is 50 µM at GLUT4 [1], 15 µM on primary rat adipocytes and 8.2 µM on GLUT4 [3]. Besides, the half-inhibitory concentration (IC50) on GLUT4 [2] stood at 20.7 ± 3.9 µM; in the assay on 3T3-L1 fibroblasts (Mus musculus, 3T3-L1, basal, 50 µM 2-deoxyglucose, read-out: IC50 for inhibition of 2-deoxyglucose uptake in 3T3-L1 fibroblasts), 241 µM. In addition, the “Effect on 2-deoxyglucose uptake (GLUT1 transporter activity)” value in the assay with 3T3-L1 fibroblasts (10 µM PI) is reported as “unaffected”; in the assay with 3T3-L1 fibroblasts (50 µM PI), “affected but a lesser extent than GLUT4”.

Broadly, the IC50 is the midpoint of a concentration-inhibition curve.
